Measurements reported in PubChem BioAssay (NCI).
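Compound exposure: 48 hours, 5 concentrations, 96-well plates. Definition used: TGI = concentration required for complete inhibition of growth.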

Legend:
Assay in all cases: DTP human tumour cell line panel, 48 h
[1] = test system: RXF-631 renal
[2] = test system: NCI-H23 lung
[3] = test system: LOX IMVI melanoma
[4] = test system: KM20L2 colon
[5] = test system: LXFL 529 NSCLC
[6] = test system: DLD-1 colon
[7] = test system: DMS 273 small cell lung
[8] = test system: M14 melanoma
[9] = test system: DMS 114 small cell lung
[10] = test system: K-562 leukemia
[11] = test system: M19-MEL melanoma
[12] = test system: HOP-62 NSCLC
[13] = test system: SNB-78 CNS
[14] = test system: OVCAR-3 ovarian
[15] = test system: HOP-18 NSCLC
[16] = test system: XF 498 CNS
[17] = test system: NCI-H226 lung

SMILES | TGI [1] [µM] | TGI [2] [µM] | TGI [3] [µM] | TGI [4] [µM] | TGI [5] [µM] | TGI [6] [µM] | TGI [7] [µM] | TGI [8] [µM] | TGI [9] [µM] | TGI [10] [µM] | TGI [11] [µM] | TGI [12] [µM] | TGI [13] [µM] | TGI [14] [µM] | TGI [15] [µM] | TGI [16] [µM] | TGI [17] [µM]
Cc1ccc([N+](=O)[O-])cc1NC(=O)/C(CC(=O)c1sc(C(N)=S)nc1C)=N\N | > 100 | 83.8 | > 100 | > 100 | > 100 | > 100 | > 100 | > 100 | > 100 | > 100 | > 100 | > 100 | > 100 | 80.7 | > 100 | – | –
COC(=O)[C@H]1C2CC[C@@H]3C45C[C@@H](c6ccoc6)O[C@@H]4O[C@@H](O2)C31CCC5C (stereo partly drawn) | – | > 100 | > 100 | > 100 | > 100 | > 100 | > 100 | > 100 | – | > 100 | – | > 100 | > 100 | > 100 | > 100 | > 100 | > 100
C[C@@H]1C[C@@H]2C(=O)N(c3ccccc3)C(=O)[C@@H]2c2[nH]c3ccc(Br)cc3c21 | > 100 | > 100 | > 100 | > 100 | > 100 | > 100 | > 100 | > 100 | > 100 | > 100 | > 100 | 47.6 | 71 | 51.7 | 62.4 | 81.3 | –
CC1=C(c2ccccc2)CON(c2ccccc2)C1 | 77.4 | > 100 | > 100 | > 100 | > 100 | – | – | > 100 | > 100 | > 100 | > 100 | > 100 | > 100 | > 100 | – | > 100 | > 100
O=C(Cc1ccccc1)N/N=C(/c1nc2ccc([N+](=O)[O-])cc2[nH]c1=O)C(O)c1ccco1 (stereo not drawn) | – | > 100 | > 100 | – | > 100 | > 100 | – | > 100 | > 100 | > 100 | > 100 | > 100 | > 100 | – | > 100 | > 100 | > 100
CN(C)CCSC(=Nc1ccccc1)n1cccc1 | – | > 100 | > 100 | > 100 | > 100 | > 100 | > 100 | > 100 | 80.8 | > 100 | > 100 | > 100 | 76.9 | > 100 | > 100 | > 100 | 75.7
N#CC(C(=S)Nc1ccccc1)=C1Nc2ccccc2N1 | – | > 10 | > 10 | > 10 | > 10 | > 10 | > 10 | > 10 | > 10 | > 10 | > 10 | > 10 | – | > 10 | > 10 | > 10 | > 10
